Reference: paper PMC7377239, “Cardiovascular Effects of Polychlorinated Biphenyls and Their Major Metabolites” (Environmental Health Perspectives, 2020)
Like-named read-outs stand apart in the source and are kept apart here.

System: iCell endothelial cells (human iPSC-derived ECs)
Test: Tube formation (tubulogenesis) assay in iCell endothelial cells, 18 h
Assay type: cell-based
Conditions: Homo sapiens, Endothelial cell, iPSC-EC tube formation, 18 hr; for activity at 0.1 µM: 0.10 µM; for minimal effective concentration: top concentration 100.00 µM
Outline: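 Tube formation was measured by calcein AM imaging after overnight compound exposure (37°C, 0.5% DMSO vehicle) of human iPSC-derived ECs, 7,500/well, on reduced-growth-factor Geltrex in starvation medium. Vehicle-normalized data fitted to four-parameter logistic; POD set at one vehicle SD; without response, 100 μM taken as NOAEL.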

[1] = 0.00 µM control = 100.00, read-out: endo.mtl.18hr
[2] = 0.00 µM control = 100.00, read-out: endo.tlps.18hr
[3] = 0.00 µM control = 100.00, read-out: endo.tta.18hr
[4] = 0.00 µM control = 100.00, read-out: endo.ttl.18hr

SMILES: COc1ccc(-c2ccc(Cl)cc2)cc1 [4'-OMe PCB3]
- activity at 0.01 µM [1]: 101%
- activity at 0.01 µM [2]: 95.9%
- activity at 0.01 µM [3]: 157%
- activity at 0.01 µM [4]: 149%
- activity at 0.1 µM [1]: 102%
- activity at 0.1 µM [2]: 127%
- activity at 0.1 µM [3]: 130%
- activity at 0.1 µM [4]: 124%
- activity at 1 µM [1]: 96%
- activity at 1 µM [2]: 95%
- activity at 1 µM [3]: 127%
- activity at 1 µM [4]: 123%
- activity at 10 µM [1]: 76%
- activity at 10 µM [2]: 82.1%
- activity at 10 µM [3]: 58.6%
- activity at 10 µM [4]: 56.5%
- activity at 100 µM [1]: 65.6%
- activity at 100 µM [2]: 33%
- activity at 100 µM [3]: 46.5%
- activity at 100 µM [4]: 46.3%
- minimal effective concentration (read-out: endo.mtl.18hr POD): 3.4 µM
- minimal effective concentration (read-out: endo.tlps.18hr POD): 12.3 µM
- minimal effective concentration (read-out: endo.tta.18hr POD): 7.76 µM
- minimal effective concentration (read-out: endo.ttl.18hr POD): 7.16 µM
